According to patent publication US20130072430A1, “METHODS FOR TREATMENT OR PROPHYLAXIS OF KIDNEY OR LIVER DYSFUNCTION” (NPS PHARMACEUTICALS, INC., priority 2010, published 2013):

System: Human patients with short bowel syndrome
Experiment: Example 3: change from baseline to week 24 in liver enzyme levels (ALP, ALT, AST, total bilirubin, GGTP) by responder status (reduced parenteral nutrition)
Type: in vivo
Conditions: 0.05 mg/kg/day
Protocol: In this example the data presented in Example 2 are analyzed to evaluate whether the beneficial effects of teduglutide on liver function tests are related to the reduction of parenteral nutrition volume.
Table 5 depicts the change in liver enzyme levels from baseline to week 24 in responders and non-responders. Responders are human patients with reduced parenteral nutrition, while non-responders are human patients without reduced parenteral nutrition. Human patients either received placebo or teduglutide at 0.05 mg/kg/day. Known biomarkers of liver function were monitored for 24 weeks. The liver biomarkers tested included ALP, ALT, AST, total bilirubin and GGTP.
Table 6 depicts the change in liver enzyme levels (ALP, ALT, AST, total bilirubin and GGTP), as presented in Table 5, and stratifies them by treatment group (placebo versus teduglutide at 0.05 mg/kg/day) and responder status (responder versus non-responder).

## CC[C@H](C)[C@H](NC(=O)[C@H](Cc1ccccc1)NC(=O)[C@H](CC(=O)O)NC(=O)[C@H](CCCNC(=N)N)NC(=O)[C@H](C)NC(=O)[C@H](C)NC(=O)[C@H](CC(C)C)NC(=O)[C@H](CC(N)=O)NC(=O)[C@H](CC(=O)O)NC(=O)[C@H](CC(C)C)NC(=O)[C@@H](NC(=O)[C@@H](NC(=O)[C@H](CC(N)=O)NC(=O)[C@H](CCSC)NC(=O)[C@H](CCC(=O)O)NC(=O)[C@H](CC(=O)O)NC(=O)[C@H](CO)NC(=O)[C@H](Cc1ccccc1)NC(=O)[C@H](CO)NC(=O)CNC(=O)[C@H](CC(=O)O)NC(=O)CNC(=O)[C@@H](N)Cc1c[nH]cn1)[C@@H](C)O)[C@@H](C)CC)C(=O)N[C@@H](CC(N)=O)C(=O)N[C@@H](Cc1c[nH]c2ccccc12)C(=O)N[C@@H](CC(C)C)C(=O)N[C@H](C(=O)N[C@@H](CCC(N)=O)C(=O)N[C@H](C(=O)N[C@@H](CCCCN)C(=O)N[C@H](C(=O)N[C@H](C(=O)N[C@@H](CC(=O)O)C(=O)O)[C@@H](C)O)[C@@H](C)CC)[C@@H](C)O)[C@@H](C)CC [teduglutide]
Baseline to week 24
  relation of effect on liver function tests to reduction of parenteral nutrition (responders vs non-responders): the major part of the effect is not mediated through the reduction of parenteral nutrition
Non-responder, n=11
  ALKALINE PHOSPHATASE change from Baseline to Week 24, Mean: −13.82 U/L
  ALKALINE PHOSPHATASE change from Baseline to Week 24, Median: −7 U/L
  ALT change from Baseline to Week 24, Mean: −3.82 U/L
  ALT change from Baseline to Week 24, Median: −3 U/L
  AST change from Baseline to Week 24, Mean: −2.18 U/L
  AST change from Baseline to Week 24, Median: −2 U/L
  BILIRUBIN, TOTAL change from Baseline to Week 24, Mean: -2.43 µmol/L
  BILIRUBIN, TOTAL change from Baseline to Week 24, Median: -1.7 µmol/L
  GGTP change from Baseline to Week 24, Mean: −1.91 U/L
  GGTP change from Baseline to Week 24, Median: 3 U/L
Responder, n=27
  ALKALINE PHOSPHATASE change from Baseline to Week 24, Mean: −35.52 U/L
  ALKALINE PHOSPHATASE change from Baseline to Week 24, Median: −34 U/L
  ALT change from Baseline to Week 24, Mean: −17.48 U/L
  ALT change from Baseline to Week 24, Median: −14 U/L
  AST change from Baseline to Week 24, Mean: −7.30 U/L
  AST change from Baseline to Week 24, Median: −7 U/L
  BILIRUBIN, TOTAL change from Baseline to Week 24, Mean: -4.19 µmol/L
  BILIRUBIN, TOTAL change from Baseline to Week 24, Median: -2.4 µmol/L
  GGTP change from Baseline to Week 24, Mean: −18.41 U/L
  GGTP change from Baseline to Week 24, Median: −10 U/L
Total, n=38
  ALKALINE PHOSPHATASE change from Baseline to Week 24, Mean: −29.24 U/L
  ALKALINE PHOSPHATASE change from Baseline to Week 24, Median: −24.5 U/L
  ALT change from Baseline to Week 24, Mean: −13.53 U/L
  ALT change from Baseline to Week 24, Median: −7.5 U/L
  AST change from Baseline to Week 24, Mean: −5.82 U/L
  AST change from Baseline to Week 24, Median: −5 U/L
  BILIRUBIN, TOTAL change from Baseline to Week 24, Mean: -3.68 µmol/L
  BILIRUBIN, TOTAL change from Baseline to Week 24, Median: -2.35 µmol/L
  GGTP change from Baseline to Week 24, Mean: −13.63 U/L
  GGTP change from Baseline to Week 24, Median: −6 U/L
By Treatment
  ALKALINE PHOSPHATASE change from Baseline to Week 24, LS Means: −24.67 U/L
  ALT change from Baseline to Week 24, LS Means: −10.65 U/L
  AST change from Baseline to Week 24, LS Means: −4.74 U/L
  BILIRUBIN, TOTAL change from Baseline to Week 24, LS Means: -3.31 µmol/L
  GGTP change from Baseline to Week 24, LS Means: −10.16 U/L
